Reference: US20090304821A1, “Pharmaceutical Combination” (Takeda Pharmaceutical Company Limited, priority 2006, published 2009)

Target: T1, human CaR (Homo sapiens, UniProt P41180)
T1 construct: expressed in transfected cells; cDNA amplified from human kidney cDNA (TOYOBO); membrane fraction used
T1 sequence (P41180 20-1078): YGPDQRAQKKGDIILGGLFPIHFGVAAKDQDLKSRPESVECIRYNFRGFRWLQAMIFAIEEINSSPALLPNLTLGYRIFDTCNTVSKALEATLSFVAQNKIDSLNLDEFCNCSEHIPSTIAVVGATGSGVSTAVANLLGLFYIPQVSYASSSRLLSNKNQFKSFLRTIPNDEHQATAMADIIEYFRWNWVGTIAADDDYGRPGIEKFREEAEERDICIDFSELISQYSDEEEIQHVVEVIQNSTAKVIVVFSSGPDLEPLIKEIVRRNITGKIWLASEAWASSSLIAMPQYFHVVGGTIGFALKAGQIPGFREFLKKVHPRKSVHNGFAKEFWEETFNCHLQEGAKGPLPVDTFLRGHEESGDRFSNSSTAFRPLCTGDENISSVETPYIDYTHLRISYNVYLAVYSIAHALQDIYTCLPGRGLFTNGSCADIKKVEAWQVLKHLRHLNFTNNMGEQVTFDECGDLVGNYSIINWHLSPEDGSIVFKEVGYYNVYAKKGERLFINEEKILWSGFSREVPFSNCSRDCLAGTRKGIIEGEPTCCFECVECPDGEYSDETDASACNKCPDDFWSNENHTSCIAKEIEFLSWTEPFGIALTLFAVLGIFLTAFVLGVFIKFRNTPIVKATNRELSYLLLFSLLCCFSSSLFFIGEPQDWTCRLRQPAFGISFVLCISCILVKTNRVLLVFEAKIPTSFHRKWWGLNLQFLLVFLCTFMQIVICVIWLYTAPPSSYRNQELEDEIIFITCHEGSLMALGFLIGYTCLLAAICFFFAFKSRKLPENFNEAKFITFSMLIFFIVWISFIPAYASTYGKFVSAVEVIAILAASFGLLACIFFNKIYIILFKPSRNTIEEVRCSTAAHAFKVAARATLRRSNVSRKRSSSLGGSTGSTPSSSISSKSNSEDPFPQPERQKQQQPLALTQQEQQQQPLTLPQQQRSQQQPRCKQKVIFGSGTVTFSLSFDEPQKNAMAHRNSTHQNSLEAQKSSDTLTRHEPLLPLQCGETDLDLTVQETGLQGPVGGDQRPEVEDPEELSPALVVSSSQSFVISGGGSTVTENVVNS
Assay: GTPγS binding assay on human CaR-expressing CHO cell membrane
Assay type: biochemical
Conditions: % of binding with 6 mM calcium only
Procedure: Preparation of Membrane Fraction is Described Bellow. The human CaR-expressing CHO cells were inoculated to a F500 flask in 1.8×10^5 cells/flask followed by cultivation for 2 days. The cells were scraped with 10 ml of Phosphate-Buffered Saline containing 0.02% EDTA. After centrifugation (2000 rpm, 10 min) of the cells, the cell pellet was resuspended into 12 ml of homogenate buffer solution (10 mM NaHCO3, 1 mM EDTA, 1× Protease inhibitor cocktail (pH 7.4)) and homogenized by Polytron™ (2000 rpm, 1 min). The cell debris was removed by centrifugation (2000 rpm, 10 min), and then the CaR-expressing cell membrane fraction was collected by ultracentrifugation (Beckman 70 Ti type rotor, 30000 rpm, 1 hour).
The GTPγS binding activity was measured as follows. Twenty μg of the CaR-expressing cell membrane was incubated with test compounds for 10 min. The assays were carried out at room temperature for an hour in a reaction mixture solution containing 20 mM HEPES (pH.7.4), 100 mM NaCl, 1 mM MgCl2, 167 μg/ml DTT, 5 μM guanosine 5′-diphosphate, 0.4 nM [^35S]-guanosine 5′-(γ-thio) triphosphate ([^35S]-GTPγS) and 6 mM CaCl2. The reaction mixture was filtered through a GF/C filter. After washing four times with 300 μl of Phosphate-Buffered Saline, the amount of [^35S]-GTPγS bound to the filter was measured using a Top-count scintillation counter.
Effects of test compounds on [^35S]-GTPγS binding were expressed in percentage terms. This was calculated from the equation [100×(t′−b)]/(t−b)]. Herein, t′, t and b are values of [^35S]-GTPγS binding (dpm), t′ is a value in the presence of 6 mM calcium and the test compound, t is a value in the presence of 6 mM calcium only and b is a value in the absence of both 6 mM calcium and the test compound.

[1] = 1 μM test compound, compounds marked antagonist

| [^35S]-GTPγS binding (%) (10 μM test compound, compound marked agonist) | [^35S]-GTPγS binding (%) [1] | SMILES |
| --- | --- | --- |
| 256 (10 μM) % | – | O=C(NCC(c1ccccc1)N1CCCC1)c1cnn2c1NC(c1ccccc1)CC2C(F)(F)F (stereo not shown) [Test Compound 7, 5-phenyl-N-(2-phenyl-2-(1-pyrrolidinyl)ethyl)-7-(trifluoromethyl)-4,5,6,7-tetrahydropyrazolo[1,5-a]pyrimidine-3-carboxamide] |
| – | 34 (1 μM) % | COc1ccc(C(CNC(=O)c2cnn3c2NC(c2ccccc2)CC3C(F)(F)F)c2ccccc2)cc1 (stereo not shown) [Test Compound 1, N-(2-(4-methoxyphenyl)-2-phenylethyl)-5-phenyl-7-(trifluoromethyl)-4,5,6,7-tetrahydropyrazolo[1,5-a]pyrimidine-3-carboxamide] |
| – | 0 (1 μM) % | COc1ccc(C(NC(=O)c2cnn3c2NC(c2ccccc2)CC3C)c2ccc(OC)cc2)cc1 (stereo not shown) [Test Compound 2, N-(bis(4-methoxyphenyl)methyl)-7-methyl-5-phenyl-4,5,6,7-tetrahydropyrazolo[1,5-a]pyrimidine-3-carboxamide] |
| – | 10 (1 μM) % | Cc1ccc(C(OC2CCN(C(=O)c3cnn4c3NC(c3ccccc3)CC4C(F)(F)F)CC2)c2ccc(C)cc2)cc1 (stereo not shown) [Test Compound 4, 3-((4-(bis(4-methylphenyl)methoxy)-1-piperidinyl)carbonyl)-5-phenyl-7-(trifluoromethyl)-4,5,6,7-tetrahydropyrazolo[1,5-a]pyrimidine] |

Continued, compound first:

| SMILES | [^35S]-GTPγS binding (%) (10 μM test compound, compound marked agonist) | [^35S]-GTPγS binding (%) [1] |
| --- | --- | --- |
| CCC(CC)(NC(=O)c1cnn2c1NC(c1ccccc1)CC2C(F)(F)F)c1ccc(C(F)(F)F)cc1 (stereo not shown) [Test Compound 3, N-(1-ethyl-1-(4-(trifluoromethyl)phenyl)propyl)-5-phenyl-7-(trifluoromethyl)-4,5,6,7-tetrahydropyrazolo[1,5-a]pyrimidine-3-carboxamide] | – | 0 (1 μM) % |
| CCC(CC)(NC(=O)c1cnn2c1NC(c1ccccc1)CC2(C)C)c1ccc(-c2ccsc2)cc1 (stereo not shown) [Test Compound 6, N-(1-ethyl-1-(4-(3-thienyl)phenyl)propyl)-7,7-dimethyl-5-phenyl-4,5,6,7-tetrahydropyrazolo[1,5-a]pyrimidine-3-carboxamide] | – | 0 (1 μM) % |
| CC1(C(F)(F)F)CC(c2ccccc2)Nc2c(C(=O)NC34CC5CC(CC(C5)C3)C4)cnn21 (stereo not shown) [Test Compound 5, N-(1-adamantyl)-7-methyl-5-phenyl-7-(trifluoromethyl)-4,5,6,7-tetrahydropyrazolo[1,5-a]pyrimidine-3-carboxamide] | – | 12 (1 μM) % |
